Reference: patent US10023587B2, “Oxabicycloheptanes and oxabicycloheptenes, their preparation and use” (LIXTE BIOTECHNOLOGY, INC., priority 2007, dated 2018)
Like-named read-outs stand apart in the source and are kept apart here.

How the values were obtained:
[1] = test system: HL-60 cells; experiment: CellTiter-Glo assay, HL-60; format: cell-based; conditions: Homo sapiens; HL-60 Leukemia promyelocytic, 72 hr; read-out: IC50 (50% Inhibition of Proliferation)
Method: (§1) MDA-MB-231, HT-29, NCI-H460, NCI-H522, NCI-H69, GXF-209, HepG2, OVAR-3, PANC-1, DU-145, LNCAP, HL-60, K-562, and MOLT-4 cell lines were either obtained from the American Type Culture Collection (ATCC; Manassas, Va.), or from the National Cancer Institute (NCI; Frederick, Md.). RPMI-1640 media, L-glutamine dipeptide (HyQ SG-200), and HEPES were obtained from Hyclone (Logan, Utah).
(§2) All cell lines were routinely cultured twice weekly in RPMI-1640 medium supplemented with 2 mM L-glutamine dipeptide, 10 mM HEPES, and 10% FBS.
(§3) The adherent cell lines MDA-MB-231, HT-29, NCI-H460, NCI-H522, GXF-209, HepG2, OVAR-3, PANC-1, DU-145, and LNCAP cells were each seeded into two 96-well plates at 2,500 cells per well in a total volume of 50 uL and incubated in a 37° C. humidified 5% CO2 cell culture incubator overnight. The suspension cell lines NCI-H69, HL-60, K-562, and MOLT-4 were each seeded into two 96-well plates at 10,000 cell per well in a total volume of 50 uL and incubated in a 37° C. humidified 5% CO2 incubator overnight.
(§4) This was followed by making 2× stocks of the final concentrations required in RPMI-1640 medium. […]
(§5) Briefly, plates were removed from the incubator and placed on the bench at room temperatures for 30 minutes. […] Luminescence was then recorded using the PerkinElmer Microbeta scintillation and luminescence counter (Trilux).

[2] = test system: LNCAP cells; experiment: CellTiter-Glo assay, LNCAP; format: cell-based; conditions: Homo sapiens; LNCAP Prostate, 72 hr; read-out: IC50 (50% Inhibition of Proliferation)
Method: as §1, §2, §3, §4, §5

[3] = test system: F. solani; experiment: Antifungal susceptibility testing (broth dilution), F. solani; format: cell-based, Fusarium solani; conditions: for MIC: Fusarium solani, read-out: minimum inhibitory concentration (MIC)
Method: (§6) Anti-fungal testing was completed with a common lot for compounds 100 and 102.
(§7) A 10 mg portion of each powder was weighed out and added to 1 ml of sterile distilled water for compound 100 and DMSO for compound 102. The resulting concentration of […] was diluted to a working concentration of 640 μg/ml for each compound. All subsequent dilutions were also made using the respective diluents. Final testing concentrations ranged from 0.125-64 μg/ml.
(§8) A total of 23 isolates were tested to include 3 Candida albicans, 3 Candida glabrata, 3 Cryptococcus neoformans, 3 Aspergillus fumigatus, 3 Rhizopus oryzae, 3, Fusarium solani, 3 Pseudallescheria boydii, and 2 […] rubrum. All isolates were clinical isolates submitted to the Fungus Testing Laboratory for evaluation. Antifungal susceptibility testing was accomplished according to the methods outlined in the National Committee for Clinical Laboratory Standards, M-27A2, Reference Method for Broth Dilution Antifungal Susceptibility Testing of Yeasts; Approved Standard, and M38-A “Reference Method for Broth Dilution Antifungal Susceptibility Testing of Conidium-Forming Filamentous Fungi; Approved Standard”. This includes testing in RPMI-1640 with glutamine and without bicarbonate, an inoculum size of 0.5-2.5×10^3 for yeasts or 1-5×10^4 for moulds, and incubation at 35° C. for 24 and 48 hours.

[4] = test system: OVCAR-3 cells; experiment: CellTiter-Glo assay, OVCAR-3; format: cell-based; conditions: Homo sapiens; OVCAR-3 Ovary adenoca, 72 hr; read-out: IC50 (50% Inhibition of Proliferation)
Method: as §1, §2, §3, §4, §5

[5] = test system: NCI-H460 cells; experiment: CellTiter-Glo assay, NCI-H460; format: cell-based; conditions: Homo sapiens; NCI-H460 Lung: large cell, 72 hr; read-out: IC50 (50% Inhibition of Proliferation)
Method: as §1, §2, §3, §4, §5

[6] = test system: NCI-H522 cells; experiment: CellTiter-Glo assay, NCI-H522; format: cell-based; conditions: Homo sapiens; NCI-H522 Lung adenoca, 72 hr; read-out: IC50 (50% Inhibition of Proliferation)
Method: as §1, §2, §3, §4, §5

[7] = test system: C. neoformans; experiment: Antifungal susceptibility testing (broth dilution), C. neoformans; format: cell-based, Cryptococcus neoformans; conditions: for MIC: Cryptococcus neoformans, read-out: minimum inhibitory concentration (MIC)
Method: as §6, §7, §8

[8] = test system: R. arrhizus; experiment: Antifungal susceptibility testing (broth dilution), R. arrhizus; format: cell-based, Rhizopus oryzae; conditions: for MIC: Rhizopus arrhizus, read-out: minimum inhibitory concentration (MIC)
Method: as §6, §7, §8

[9] = test system: DAOY cells; experiment: DAOY xenograft tumor growth in SCID mice; format: in vivo; conditions: subcutaneous in SCID mice, ip daily for 20 days (FIG. 18)
Method: For in vivo experiments, subcutaneously implanted tumor cells are allowed to grow over 7 days to a size of 5-7 mm. On day 7, drug administration is begun ip daily for 20 days. The maximum perpendicular diameters of the tumor masses are measured every 2 to 5 days. On the 21st day after initiation of treatment, the animals are sacrificed and dissected free of the subcutaneous tissues and measured.

[10] = test system: PANC-1 cells; experiment: CellTiter-Glo assay, PANC-1; format: cell-based; conditions: Homo sapiens; PANC-1 Pancreas, 72 hr; read-out: IC50 (50% Inhibition of Proliferation)
Method: as §1, §2, §3, §4, §5

[11] = test system: P. boydii; experiment: Antifungal susceptibility testing (broth dilution), P. boydii; format: cell-based, Pseudallescheria boydii; conditions: for MIC: Scedosporium boydii, read-out: minimum inhibitory concentration (MIC)
Method: as §6, §7, §8

Structure (SMILES) | IC50 [1] [µM] | IC50 [2] [µM] | minimum inhibitory concentration (MIC) ([3]; isolate 07-1755, 24 Hours) [µg/mL] | minimum inhibitory concentration (MIC) ([3]; isolate 07-1755, 48 Hours) [µg/mL] | minimum inhibitory concentration (MIC) ([3]; isolate 07-1867, 24 Hours) [µg/mL] | minimum inhibitory concentration (MIC) ([3]; isolate 07-1867, 48 Hours) [µg/mL] | IC50 [4] [µM] | IC50 [5] [µM] | IC50 [6] [µM] | minimum inhibitory concentration (MIC) ([7]; isolate 07-2737, 24 Hours) [µg/mL] | minimum inhibitory concentration (MIC) ([7]; isolate 07-2737, 48 Hours) [µg/mL] | minimum inhibitory concentration (MIC) ([7]; isolate 07-2829, 24 Hours) [µg/mL] | minimum inhibitory concentration (MIC) ([7]; isolate 07-2829, 48 Hours) [µg/mL] | minimum inhibitory concentration (MIC) ([8]; isolate 07-2044, 24 Hours) [µg/mL] | minimum inhibitory concentration (MIC) ([8]; isolate 07-2044, 48 Hours) [µg/mL] | minimum inhibitory concentration (MIC) ([8]; isolate 07-2078, 24 Hours) [µg/mL] | minimum inhibitory concentration (MIC) ([8]; isolate 07-2078, 48 Hours) [µg/mL] | Effect on DAOY xenograft tumor growth (in words) [9] | IC50 [10] [µM] | minimum inhibitory concentration (MIC) ([11]; isolate 07-1502, 24 Hours) [µg/mL] | other results
CC(C)(C)OC(=O)N1CCN(C(=O)C2C(C(=O)O)[C@H]3CC[C@@H]2O3)CC1 (stereo in doubt) [Compound 102, 4-(3-Carboxy-7oxa-bicyclo[2.2.1]heptane-2-carbonyl)piperazine-1-carboxylic acid tert-butyl ester] | 6.5 | 0.48 | >64 | >64 | >64 | >64 | 5.1 | 17.5 | 2.2 | >64 | >64 | >64 | >64 | >64 | >64 | >64 | >64 | inhibit the proliferation | 20.7 | >64 | MIC ([3]; isolate 07-1399, 24 Hours): > 64 µg/mL; MIC ([3]; isolate 07-1399, 48 Hours): > 64 µg/mL; MIC ([7]; isolate 07-2665, 24 Hours): > 64 µg/mL; MIC ([7]; isolate 07-2665, 48 Hours): > 64 µg/mL; MIC ([8]; isolate 07-1870, 24 Hours): > 64 µg/mL; MIC ([8]; isolate 07-1870, 48 Hours): > 64 µg/mL; MIC ([11]; isolate 07-1333, 24 Hours): > 64 µg/mL; MIC ([11]; isolate 07-1333, 48 Hours): > 64 µg/mL; minimum inhibitory concentration (MIC) ([11]; isolate 07-1502, 48 Hours): >64 µg/mL; minimum inhibitory concentration (MIC) ([11]; isolate 07-1601, 24 Hours): >64 µg/mL; minimum inhibitory concentration (MIC) ([11]; isolate 07-1601, 48 Hours): >64 µg/mL
CN1CCN(C(=O)C2C(C(=O)O)[C@H]3CC[C@@H]2O3)CC1 (some centres unmarked) [Compound 100, Endothall 4-Methylpiperazine Monoamide] | 7.7 | 1.5 | >64 | >64 | >64 | >64 | 2.9 | 24.3 | 3.4 | >64 | >64 | >64 | >64 | >64 | >64 | >64 | >64 | inhibit the proliferation | 25.1 | >64 | MIC ([3]; 24 h): > 64 µg/mL; MIC ([3]; 48 h): > 64 µg/mL; MIC ([7]; 24 h): > 64 µg/mL; MIC ([7]; 48 h): > 64 µg/mL; MIC ([8]; 24 h): > 64 µg/mL; MIC ([8]; 48 h): > 64 µg/mL; MIC ([11]; 24 h): > 64 µg/mL; MIC ([11]; 48 h): > 64 µg/mL; minimum inhibitory concentration (MIC) ([11]; isolate 07-1502, 48 Hours): >64 µg/mL; minimum inhibitory concentration (MIC) ([11]; isolate 07-1601, 24 Hours): >64 µg/mL; minimum inhibitory concentration (MIC) ([11]; isolate 07-1601, 48 Hours): >64 µg/mL
